Experimental data reported in patent publication US20220125765A1, “PHARMACEUTICAL COMBINATIONS COMPRISING MEBENDAZOLE AND A STRONG OR MODERATE CYP1A2 INHIBITOR” (ZEPHAPHARM LTD, priority 2019, published 2022).
Like-named read-outs stand apart in the source and are kept apart here.

Assays:
in vitro = conditions: human; for half-life at 1 μM: cryopreserved hepatocytes; for hepatocyte CLint at 1 µM: cryopreserved hepatocytes (suspension)
Method: The amount of test compound remaining at each time point was analysed by LC-MS/MS. Appropriate control compounds were also incubated.
The final incubation volume was 500 μL. Appropriate control compounds were included, alongside appropriate vehicle control.
The reactions were stopped by transferring 50 μL of incubate to 100 μL acetonitrile containing internal standard at the appropriate time points (0, 5, 10, 20, 40 and 60 min). The termination plates were centrifuged at 2500 rpm at 4° C. for 30 min to precipitate the protein.

[1] = system: 8 neuroblastoma and 13 sarcoma derived cell lines; experiment: 2D monolayer CellTiter-Blue viability, panel geometric mean (Example 9); assay type: cell-based; conditions: 21 cell lines, 72 hours
Method: (§1) Seventeen compounds, including mebendazole (Batch no. […] Efficacy of compounds was assessed using CellTiter-Blue® Cell Viability Assay. Anti-tumor activity is expressed as absolute and relative IC50 and IC70 values, calculated by non-linear regression analysis.

SXFS SK-LMS-1 = experiment: 2D monolayer CellTiter-Blue viability, soft tissue sarcoma SK-LMS-1; assay type: cell-based; conditions: 72 h
Method: as §1

OVCAR-5 = experiment: 2D monolayer CellTiter-Blue viability, ovarian cancer OVCAR-5; assay type: cell-based; conditions: for IC50: Homo sapiens; for Test/Control (%) at Drug Concentration: 72 h
Method: (§2) Mebendazole was tested in vitro across a panel of 12 tumor cell lines of ovarian and renal cancer by using a 2D monolayer assay. […] OVXF 899L and RXF 486L are P-gp expressing, multidrug resistant cell lines.
(§3) Anti-tumor activity is expressed as absolute and relative IC50/70 values, calculated by 4-parameter non-linear curve fit.

RXF 1220L = experiment: 2D monolayer CellTiter-Blue viability, renal cancer RXF 1220L; assay type: cell-based; conditions: for Test/Control (%) at Drug Concentration: 72 h
Method: as §2, §3

[2] = molecular target: T1, human OATP1B1 transporter (Homo sapiens, UniProt Q9Y6L6); experiment: Uptake into OATP1B1 and empty vector transfected HEK293 cells; assay type: in vitro ADME; conditions: for Uptake rate Mean: 2 min; for Uptake ratio: OATP1B1 vs control
T1 construct: expressed in transfected cells; host or cells: HEK293 (transient transfection)
T1 sequence (Q9Y6L6 1-691): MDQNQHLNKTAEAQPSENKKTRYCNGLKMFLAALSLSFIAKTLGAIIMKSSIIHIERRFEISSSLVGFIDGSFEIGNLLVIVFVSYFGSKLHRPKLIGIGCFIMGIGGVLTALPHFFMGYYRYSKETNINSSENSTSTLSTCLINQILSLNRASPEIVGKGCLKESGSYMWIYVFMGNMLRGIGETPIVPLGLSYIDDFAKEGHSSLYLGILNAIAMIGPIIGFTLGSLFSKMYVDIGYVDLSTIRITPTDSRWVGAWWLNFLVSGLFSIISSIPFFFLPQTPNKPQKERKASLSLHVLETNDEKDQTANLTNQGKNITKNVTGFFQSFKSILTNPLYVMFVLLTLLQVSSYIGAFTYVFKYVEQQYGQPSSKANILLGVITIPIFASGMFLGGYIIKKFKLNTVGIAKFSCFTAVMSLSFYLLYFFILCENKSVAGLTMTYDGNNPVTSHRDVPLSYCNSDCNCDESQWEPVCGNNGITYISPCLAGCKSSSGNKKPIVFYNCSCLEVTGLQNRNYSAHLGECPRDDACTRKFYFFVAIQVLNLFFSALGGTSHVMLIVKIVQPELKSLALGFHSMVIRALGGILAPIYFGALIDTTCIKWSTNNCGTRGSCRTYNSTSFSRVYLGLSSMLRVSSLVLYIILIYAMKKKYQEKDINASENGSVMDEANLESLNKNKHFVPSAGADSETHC
Method: Test compound (at 1 and 10 μM) was incubated with both SLC transporter-expressing HEK293 cells and control (empty vector) HEK293 cells for 2 min.

SXFS HT-1080 = experiment: 2D monolayer CellTiter-Blue viability, soft tissue sarcoma HT-1080; assay type: cell-based; conditions: 72 h
Method: Seventeen compounds, including mebendazole (Batch no. MKCC1885, Sigma-Aldrich, 100% pure), were tested in vitro across a panel of 8 selected neuroblastoma (NBXF) and 13 selected sarcoma (SXF) derived cell lines by using a 2D monolayer assay. Compounds were tested at […] in half-log increments up to 100 μM and cells were treated for a period of 72 hours. Efficacy of compounds was assessed using CellTiter-Blue® Cell Viability Assay. Anti-tumor activity is expressed as absolute and relative IC50 and IC70 values, calculated by non-linear regression analysis.

half-life at 1 μM (in vitro): 1.92 h
hepatocyte CLint at 1 µM (in vitro): 12.1 ± 0.601 µL/min/1e6 cells
hepatocyte CLint at 1 µM (in vitro; with cimetidine 30 µM): 24.8 ± 1.82 µL/min/1e6 cells
hepatocyte CLint at 1 µM (in vitro; with cimetidine 100 µM): 18 ± 1.19 µL/min/1e6 cells
hepatocyte CLint at 1 µM (in vitro; with cimetidine 300 µM): 24.8 ± 2.36 µL/min/1e6 cells
hepatocyte CLint at 1 µM (in vitro; with fluvoxamine 3 µM): 8.14 ± 1.53 µL/min/1e6 cells
hepatocyte CLint at 1 µM (in vitro; with fluvoxamine 10 μM): 10.8 ± 2.32 µL/min/1e6 cells
half-life at 1 μM (in vitro; with cimetidine 30 μM): 0.932 h
half-life at 1 μM (in vitro; with cimetidine 100 μM): 1.29 h
half-life at 1 μM (in vitro; with cimetidine 300 μM): 0.932 h
half-life at 1 μM (in vitro; with fluvoxamine 3 μM): 2.83 h
half-life at 1 μM (in vitro; with fluvoxamine 10 μM): 2.13 h
half-life at 1 μM (in vitro; with mexiletine 10 μM): 5.1 h
half-life at 1 μM (in vitro; with mexiletine 30 μM): 2.2 h
half-life at 1 μM (in vitro; with mexiletine 100 μM): 2 h
IC50 ([1]; read-out: absolute geometric mean IC50): 0.291 µM
IC50 ([1]; read-out: relative geometric mean IC50): 0.28 µM
IC50 (OVCAR-5; OVCAR-5, 72 h, read-out: Abs. IC50): 0.865 µM
IC50 (OVCAR-5; OVCAR-5, 72 h, read-out: Rel. IC50): 0.732 µM
IC50 (RXF 1220L; RXF 1220, 72 h, read-out: Abs. IC50): > 3.2 µM
IC50 (RXF 1220L; RXF 1220, 72 h, read-out: Rel. IC50): 0.398 µM
Uptake rate Mean ([2]; 1 μM, OATP1B1 HEK293 cells): 42.5 pmol/mg
Uptake ratio ([2]; 1 μM): 0.9
Uptake rate Mean ([2]; 1 μM, control (empty vector) HEK293 cells): 49.0 pmol/mg
Uptake rate Mean ([2]; 10 μM, OATP1B1 HEK293 cells): 426 pmol/mg
Uptake ratio ([2]; 10 μM): 0.9
Uptake rate Mean ([2]; 10 μM, control (empty vector) HEK293 cells): 461 pmol/mg
substrate of the human OATP1B1 transporter ([2]; 1 and 10 μM): not a substrate
Compound: COC(=O)Nc1nc2ccc(C(=O)c3ccccc3)cc2[nH]1 [Mebendazole, methyl N-(6-benzoyl-1H-benzimidazol-2-yl)carbamate]
Test/Control (%) at Drug Concentration (SXFS SK-LMS-1; SK-LMS-1, 1.0E+00 μM): 27%
Test/Control (%) at Drug Concentration (SXFS SK-LMS-1; SK-LMS-1, 1.0E+01 μM): 9%
Test/Control (%) at Drug Concentration (SXFS SK-LMS-1; SK-LMS-1, 1.0E+02 μM): 3%
Test/Control (%) at Drug Concentration (SXFS SK-LMS-1; SK-LMS-1, 1.0E−01 μM): 80%
Test/Control (%) at Drug Concentration (SXFS SK-LMS-1; SK-LMS-1, 1.0E−02 μM): 90%
Test/Control (%) at Drug Concentration (SXFS SK-LMS-1; SK-LMS-1, 3.2E+00 μM): 16%
Test/Control (%) at Drug Concentration (SXFS SK-LMS-1; SK-LMS-1, 3.2E+01 μM): 5%
Test/Control (%) at Drug Concentration (SXFS SK-LMS-1; SK-LMS-1, 3.2E−01 μM): 45%
Test/Control (%) at Drug Concentration (SXFS SK-LMS-1; SK-LMS-1, 3.2E−02 μM): 83%
Test/Control (%) at Drug Concentration (SXFS SK-LMS-1; SK-LMS-1, 3.2E−03 μM): 101%
Test/Control (%) at Drug Concentration (OVCAR-5; OVCAR-5, 1.0E+00 μM): 42%
Test/Control (%) at Drug Concentration (OVCAR-5; OVCAR-5, 1.0E−01 μM): 90%
Test/Control (%) at Drug Concentration (OVCAR-5; OVCAR-5, 1.0E−02 μM): 102%
Test/Control (%) at Drug Concentration (OVCAR-5; OVCAR-5, 1.0E−03 μM): 103%
Test/Control (%) at Drug Concentration (OVCAR-5; OVCAR-5, 1.0E−04 μM): 102%
Test/Control (%) at Drug Concentration (OVCAR-5; OVCAR-5, 3.2E+00 μM): 22%
Test/Control (%) at Drug Concentration (OVCAR-5; OVCAR-5, 3.2E−01 μM): 91%
Test/Control (%) at Drug Concentration (OVCAR-5; OVCAR-5, 3.2E−02 μM): 95%
Test/Control (%) at Drug Concentration (OVCAR-5; OVCAR-5, 3.2E−03 μM): 92%
Test/Control (%) at Drug Concentration (OVCAR-5; OVCAR-5, 3.2E−04 μM): 96%
Abs. IC70 (OVCAR-5; OVCAR-5, 72 h): 1.480 µM
Rel. IC70 (OVCAR-5; OVCAR-5, 72 h): 0.995 µM
Bot. (%) (OVCAR-5; OVCAR-5, 72 h, curve fit): 20%
Top (%) (OVCAR-5; OVCAR-5, 72 h, curve fit): 97%
Test/Control (%) at Drug Concentration (RXF 1220L; RXF 1220, 1.0E+00 μM): 70%
Test/Control (%) at Drug Concentration (RXF 1220L; RXF 1220, 1.0E−01 μM): 99%
Test/Control (%) at Drug Concentration (RXF 1220L; RXF 1220, 1.0E−02 μM): 113%
Test/Control (%) at Drug Concentration (RXF 1220L; RXF 1220, 1.0E−03 μM): 98%
Test/Control (%) at Drug Concentration (RXF 1220L; RXF 1220, 1.0E−04 μM): 99%
Test/Control (%) at Drug Concentration (RXF 1220L; RXF 1220, 3.2E+00 μM): 61%
Test/Control (%) at Drug Concentration (RXF 1220L; RXF 1220, 3.2E−01 μM): 83%
Test/Control (%) at Drug Concentration (RXF 1220L; RXF 1220, 3.2E−02 μM): 99%
Test/Control (%) at Drug Concentration (RXF 1220L; RXF 1220, 3.2E−03 μM): 106%
Test/Control (%) at Drug Concentration (RXF 1220L; RXF 1220, 3.2E−04 μM): 102%
Abs. IC70 (RXF 1220L; RXF 1220, 72 h): >3.200 µM
Rel. IC70 (RXF 1220L; RXF 1220, 72 h): 0.751 µM
Bot. (%) (RXF 1220L; RXF 1220, 72 h, curve fit): 59%
Top (%) (RXF 1220L; RXF 1220, 72 h, curve fit): 103%
Test/Control (%) at Drug Concentration (SXFS HT-1080; HT-1080, 1.0E+00 μM): 7%
Test/Control (%) at Drug Concentration (SXFS HT-1080; HT-1080, 1.0E+01 μM): 4%
Test/Control (%) at Drug Concentration (SXFS HT-1080; HT-1080, 1.0E+02 μM): 1%
Test/Control (%) at Drug Concentration (SXFS HT-1080; HT-1080, 1.0E−01 μM): 79%
Test/Control (%) at Drug Concentration (SXFS HT-1080; HT-1080, 1.0E−02 μM): 89%
Test/Control (%) at Drug Concentration (SXFS HT-1080; HT-1080, 3.2E+00 μM): 4%
Test/Control (%) at Drug Concentration (SXFS HT-1080; HT-1080, 3.2E+01 μM): 3%
Test/Control (%) at Drug Concentration (SXFS HT-1080; HT-1080, 3.2E−01 μM): 35%
Test/Control (%) at Drug Concentration (SXFS HT-1080; HT-1080, 3.2E−02 μM): 79%
Test/Control (%) at Drug Concentration (SXFS HT-1080; HT-1080, 3.2E−03 μM): 90%
